In PMC10222328 (Pharmaceuticals, 2023):

Legend:
[1] = test system: carrageenan-induced rat paw edema; experiment: Carrageenan-induced rat paw edema model; format: in vivo, Wistar albino rats; details: for Rat paw thickness: mean ± SD; for inhibition in vivo at 2.5 mg/kg / inhibition in vivo at 5 mg/kg / inhibition in vivo at 10 mg/kg: Rattus norvegicus, po
COX-2 = molecular target: T1, COX-2 (Homo sapiens, UniProt P35354); experiment: Fluorometric COX-2 inhibitor screening kit; format: biochemical; details: at 10 µM; mean ± standard error of two measurements; read-out: COX-2 Percent of Inhibition
T1 construct: purchased Abcam, UK
T1 sequence (P35354 18-604): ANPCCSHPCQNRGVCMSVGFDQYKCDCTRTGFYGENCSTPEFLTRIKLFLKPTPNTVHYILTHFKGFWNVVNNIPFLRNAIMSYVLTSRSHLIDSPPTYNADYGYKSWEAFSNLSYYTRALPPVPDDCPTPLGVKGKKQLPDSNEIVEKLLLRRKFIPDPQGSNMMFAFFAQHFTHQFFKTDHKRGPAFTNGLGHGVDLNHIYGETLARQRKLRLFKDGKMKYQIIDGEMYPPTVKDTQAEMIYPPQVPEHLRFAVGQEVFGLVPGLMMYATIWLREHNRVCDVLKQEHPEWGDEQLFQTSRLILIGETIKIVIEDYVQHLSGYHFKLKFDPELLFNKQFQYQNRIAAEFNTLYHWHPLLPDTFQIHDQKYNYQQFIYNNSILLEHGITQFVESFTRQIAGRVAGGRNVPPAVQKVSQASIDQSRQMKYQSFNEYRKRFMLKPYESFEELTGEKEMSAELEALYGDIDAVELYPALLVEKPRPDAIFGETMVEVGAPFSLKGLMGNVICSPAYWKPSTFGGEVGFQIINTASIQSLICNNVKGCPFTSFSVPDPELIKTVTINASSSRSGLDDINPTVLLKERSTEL

5-LOX = molecular target: T2, 5-LOX (Homo sapiens, UniProt P09917); experiment: Fluorometric 5-LOX inhibitor screening kit; format: biochemical; details: at 10 µM; mean ± standard error of two measurements; read-out: 5-LOX Percent of Inhibition
T2 construct: purchased Abcam, UK
T2 sequence (P09917 1-674): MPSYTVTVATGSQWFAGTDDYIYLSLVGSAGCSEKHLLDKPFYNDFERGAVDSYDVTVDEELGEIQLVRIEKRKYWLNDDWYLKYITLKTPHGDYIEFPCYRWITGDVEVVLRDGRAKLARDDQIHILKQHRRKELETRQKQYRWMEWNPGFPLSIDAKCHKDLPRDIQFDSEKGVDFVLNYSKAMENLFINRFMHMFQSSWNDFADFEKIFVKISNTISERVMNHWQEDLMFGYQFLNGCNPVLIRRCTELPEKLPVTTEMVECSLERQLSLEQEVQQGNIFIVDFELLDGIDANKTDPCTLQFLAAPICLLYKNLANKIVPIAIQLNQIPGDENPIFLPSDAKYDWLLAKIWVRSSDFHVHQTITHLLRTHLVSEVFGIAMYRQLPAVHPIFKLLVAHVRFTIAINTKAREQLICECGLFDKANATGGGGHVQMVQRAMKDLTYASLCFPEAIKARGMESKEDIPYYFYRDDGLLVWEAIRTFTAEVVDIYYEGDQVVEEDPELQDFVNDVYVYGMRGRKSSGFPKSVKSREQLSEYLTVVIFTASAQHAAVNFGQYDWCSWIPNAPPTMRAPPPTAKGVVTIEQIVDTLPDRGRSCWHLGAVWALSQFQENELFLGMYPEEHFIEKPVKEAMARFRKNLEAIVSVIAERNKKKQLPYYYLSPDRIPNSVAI

## CCOC(=O)C(Cc1ccccc1)NC(=S)NC(=O)C(C)c1ccc2cc(OC)ccc2c1 [Compound 6, Ethyl(((S)-2-(6-methoxynaphthalen-2-yl)propanoyl)carbamothioyl)-L-phenylalaninate]
[1]; 2.5 mg/kg per os, 1 h after carrageenan
  Rat paw thickness: 6.17 ± 0.31 mm
[1]; 2.5 mg/kg per os, 2 h after carrageenan
  Rat paw thickness: 5.87 ± 0.23 mm
[1]; 2.5 mg/kg per os, 3 h after carrageenan
  Rat paw thickness: 5.37 ± 0.55 mm
[1]; 2.5 mg/kg per os, 4 h after carrageenan
  Rat paw thickness: 4.93 ± 0.21 mm
[1]; 5.0 mg/kg per os, 1 h after carrageenan
  Rat paw thickness: 6.47 ± 0.57 mm
[1]; 5.0 mg/kg per os, 2 h after carrageenan
  Rat paw thickness: 6.17 ± 0.06 mm
[1]; 5.0 mg/kg per os, 3 h after carrageenan
  Rat paw thickness: 5.77 ± 0.06 mm
[1]; 5.0 mg/kg per os, 4 h after carrageenan
  Rat paw thickness: 5.27 ± 0.21 mm
[1]; 10.0 mg/kg per os, 1 h after carrageenan
  Rat paw thickness: 6.20 ± 0.20 mm
[1]; 10.0 mg/kg per os, 2 h after carrageenan
  Rat paw thickness: 6.17 ± 0.23 mm
[1]; 10.0 mg/kg per os, 3 h after carrageenan
  Rat paw thickness: 5.27 ± 0.72 mm
[1]; 10.0 mg/kg per os, 4 h after carrageenan
  Rat paw thickness: 5.03 ± 0.76 mm
[1]; 1 h, 2.5 mg/kg per os, 1 h after carrageenan
  inhibition in vivo at 2.5 mg/kg: 11.8%
[1]; 1 h, 5.0 mg/kg per os, 1 h after carrageenan
  inhibition in vivo at 5 mg/kg: 17.5%
[1]; 1 h, 10.0 mg/kg per os, 1 h after carrageenan
  inhibition in vivo at 10 mg/kg: 21.6%
[1]; 2 h, 2.5 mg/kg per os, 2 h after carrageenan
  inhibition in vivo at 2.5 mg/kg: 15.7%
[1]; 2 h, 5.0 mg/kg per os, 2 h after carrageenan
  inhibition in vivo at 5 mg/kg: 21.8%
[1]; 2 h, 10.0 mg/kg per os, 2 h after carrageenan
  inhibition in vivo at 10 mg/kg: 14.2%
[1]; 3 h, 2.5 mg/kg per os, 3 h after carrageenan
  inhibition in vivo at 2.5 mg/kg: 26.9%
[1]; 3 h, 5.0 mg/kg per os, 3 h after carrageenan
  inhibition in vivo at 5 mg/kg: 28.8%
[1]; 3 h, 10.0 mg/kg per os, 3 h after carrageenan
  inhibition in vivo at 10 mg/kg: 47.1%
[1]; 4 h, 2.5 mg/kg per os, 4 h after carrageenan
  inhibition in vivo at 2.5 mg/kg: 37.9%
[1]; 4 h, 5.0 mg/kg per os, 4 h after carrageenan
  inhibition in vivo at 5 mg/kg: 44.7%
[1]; 4 h, 10.0 mg/kg per os, 4 h after carrageenan
  inhibition in vivo at 10 mg/kg: 49.4%
COX-2
  inhibition at 10 µM: 24 ± 5.36%
5-LOX
  inhibition at 10 µM: 23.6 ± 2.14%
